Results published in patent US20220324835A1 (Nurix Therapeutics, Inc., priority 2018, published 2022).

How the values were obtained:
Cbl-b [1] = target: T1, Cbl-b (Homo sapiens, UniProt Q13191); assay: Cbl-b inhibition assay (Cbl-b activity assay, FRET, Biological Example 1; 100 mM NaCl, 60 nM Src kinase); assay type: biochemical; conditions: upper bound stated in text lists; read-out: IC50 values in the Cbl-b inhibition assay of Biological Example 1
In short: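 FRET read-out: loss of signal marks inhibition. Mix = biotin-Avi-Cbl-b (N-term), Src kinase, UbcH5B-Ub(Bodipy-FL, irreversible conjugate), streptavidin-Tb, assay buffer.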

T-cell [2] = assay: IL-2 secretion from T-cells co-stimulated with anti-CD3 and anti-CD28 antibody (Biological Example 2); assay type: cell-based, human; conditions: Homo sapiens, T-cell, fold change over baseline (anti-CD3/anti-CD28 stimulated T-cells without inhibitor), read-out: IL-2 secretion Anti-CD3/Anti-CD28 stimulation; for fold induction at 0.3 µM: 0.3 μM Cbl-b inhibitor; for fold induction at 1 µM: 1 μM Cbl-b inhibitor
In short: (§1)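 No assay protocol given; T-cells stimulated with anti-CD3 alone or anti-CD3 plus anti-CD28, with or without Cbl-b inhibitor. Activation read as IL-2 secretion or CD25 surface staining, expressed as fold over baseline from uninhibited cells […].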

T-cell [3] = assay: IL-2 secretion from T-cells stimulated with anti-CD3 antibody alone (Biological Example 2); assay type: cell-based, human; conditions: Homo sapiens, T-cell; 1 μM Cbl-b inhibitor; fold change over baseline (anti-CD3/anti-CD28 stimulated T-cells without inhibitor); read-out: IL-2 secretion Anti-CD3 stimulation
T-cell [4] = assay: CD25 cell surface staining on T-cells co-stimulated with anti-CD3 and anti-CD28 antibody (Biological Example 2); assay type: cell-based, human; conditions: Homo sapiens, T-cell, fold change over baseline (anti-CD3/anti-CD28 stimulated T-cells without inhibitor), read-out: CD25 staining Anti-CD3/Anti-CD28 stimulation; for fold induction at 0.3 µM: 0.3 μM Cbl-b inhibitor; for fold induction at 1 µM: 1 μM Cbl-b inhibitor
In short: as §1

T-cell [5] = assay: CD25 cell surface staining on T-cells stimulated with anti-CD3 antibody alone (Biological Example 2); assay type: cell-based, human; conditions: Homo sapiens, T-cell; 1 μM Cbl-b inhibitor; fold change over baseline (anti-CD3/anti-CD28 stimulated T-cells without inhibitor); read-out: CD25 staining Anti-CD3 stimulation
Cbl-b [6] = target: T1, Cbl-b; assay: Cbl-b activity assay (Cbl-b inhibition assay), TR-FRET of Cbl-b interaction with UbcH5B-Ub; assay type: biochemical; conditions: assay buffer with 100 mM NaCl, 60 nM Src kinase; read-out: Cbl-b activity IC50
In short: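 TR-FRET readout of Cbl-b binding to Bodipy-fluorescein N-terminally labeled Ub conjugated to UbcH5B C85K, measured with compound present. After compound incubation, 60 nM Src kinase with 1 mM ATP and 5 mM MgCl2 (final) was added for 1.5 h, then a further 1 h incubation; asterisked values used 50 mM NaCl buffer and 30 nM Src.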

T1 sequence (Q13191 36-427): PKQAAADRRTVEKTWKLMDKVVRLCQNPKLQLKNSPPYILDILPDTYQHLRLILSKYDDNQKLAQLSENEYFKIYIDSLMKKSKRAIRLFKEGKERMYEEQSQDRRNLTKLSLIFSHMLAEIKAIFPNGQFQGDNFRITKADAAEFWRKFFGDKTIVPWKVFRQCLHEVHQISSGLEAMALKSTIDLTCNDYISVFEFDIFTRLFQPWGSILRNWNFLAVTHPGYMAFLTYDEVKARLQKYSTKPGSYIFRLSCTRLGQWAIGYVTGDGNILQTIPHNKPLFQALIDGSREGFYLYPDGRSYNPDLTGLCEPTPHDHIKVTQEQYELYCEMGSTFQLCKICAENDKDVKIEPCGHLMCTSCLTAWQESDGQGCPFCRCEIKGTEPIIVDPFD

Compound	IC50 (Cbl-b [1]) [nM]	fold induction at 0.3 µM (T-cell [2])	fold induction at 1 µM (T-cell [2])	fold induction at 1 µM (T-cell [3])	fold induction at 0.3 µM (T-cell [4])	fold induction at 1 µM (T-cell [4])	fold induction at 1 µM (T-cell [5])	IC50 (Cbl-b [6]) [nM]
Cn1cnnc1CC1(c2cccc(N3Cc4c(cc(N5CC6(CCC6(F)F)C5)cc4C(F)(F)F)C3=O)c2)COC1 [Example 603, 6-(5,5-difluoro-2-azaspiro[3.3]heptan-2-yl)-2-(3-(3-((4-methyl-4H-1,2,4-triazol-3-yl)methyl)oxetan-3-yl)phenyl)-4-(trifluoromethyl)isoindolin-1-one]	≤ 100	1.01 to 2.5	2.51 to 5	< 0.05	1.01 to 1.3	1.01 to 1.3	0.601 to 0.8	< 100
Cn1cnnc1CC1(c2cccc(NC(=O)c3cc(C4CC4)nc4ccnn34)c2)COC1 [Example 604, 5-cyclopropyl-N-(3-(3-((4-methyl-4H-1,2,4-triazol-3-yl)methyl)oxetan-3-yl)phenyl)pyrazolo[1,5-a]pyrimidine-7-carboxamide]	≤ 100	1.01 to 2.5	2.51 to 5	< 0.05	1.01 to 1.3	1.01 to 1.3	0.601 to 0.8	< 100
Cn1cnnc1CC1(c2cccc(NC(=O)c3ccnc4ccnn34)c2)COC1 [Example 605, N-(3-(3-((4-methyl-4H-1,2,4-triazol-3-yl)methyl)oxetan-3-yl)phenyl)pyrazolo[1,5-a]pyrimidine-7-carboxamide]	≤ 300	1.01 to 2.5	2.51 to 5	< 0.05	1.01 to 1.3	1.01 to 1.3	0.601 to 0.8	100 to 300
Cc1cc(C(=O)Nc2cccc(C3(Cc4nncn4C)COC3)c2)n2ncc(C)c2n1 [Example 606, 3,5-dimethyl-N-(3-(3-((4-methyl-4H-1,2,4-triazol-3-yl)methyl)oxetan-3-yl)phenyl)pyrazolo[1,5-a]pyrimidine-7-carboxamide]	≤ 100	2.51 to 5	2.51 to 5	0.051 to 0.1	1.01 to 1.3	1.01 to 1.3	0.801 to 1	< 100
CC1CN(c2cc3c(c(C(F)(F)F)c2)CN(c2cccc(C4(Cc5nncn5C)COC4)c2)C3=O)C1 [Example 607, 2-(3-(3-((4-methyl-4H-1,2,4-triazol-3-yl)methyl)oxetan-3-yl)phenyl)-6-(3-methylazetidin-1-yl)-4-(trifluoromethyl)isoindolin-1-one]	≤ 100	1.01 to 2.5	2.51 to 5	0.101 to 0.15	1.01 to 1.3	1.01 to 1.3	0.601 to 0.8	< 100
CC1CN(c2cc3c(c(C(F)(F)F)c2)CN(c2cccc(C4(Cc5nncn5C)COC4)c2)C3=O)C1C (stereo not drawn) [Example 608, 6-(2,3-dimethylazetidin-1-yl)-2-(3-(3-((4-methyl-4H-1,2,4-triazol-3-yl)methyl)oxetan-3-yl)phenyl)-4-(trifluoromethyl)isoindolin-1-one]	≤ 100	1.01 to 2.5	2.51 to 5	0.051 to 0.1	1.01 to 1.3	1.01 to 1.3	0.601 to 0.8	< 100
Cn1cnnc1CC1(c2cccc(N3Cc4c(cc(N5CC(C(F)F)C5)nc4C4CC4)C3=O)c2)COC1 [Example 609, 4-cyclopropyl-6-(3-(difluoromethyl)azetidin-1-yl)-2-(3-(3-((4-methyl-4H-1,2,4-triazol-3-yl)methyl)oxetan-3-yl)phenyl)-2,3-dihydro-1H-pyrrolo[3,4-c]pyridin-1-one]	≤ 100	2.51 to 5	5 to 7.5	0.101 to 0.15	1.01 to 1.3	1.01 to 1.3	0.801 to 1	< 100
Cn1cnnc1CC1(c2cccc(NC(=O)c3cc(N4CC(C(F)F)C4)nc(C4CC4)n3)c2)COC1 [Example 610, 2-cyclopropyl-6-(3-(difluoromethyl)azetidin-1-yl)-N-(3-(3-((4-methyl-4H-1,2,4-triazol-3-yl)methyl)oxetan-3-yl)phenyl)pyrimidine-4-carboxamide]	≤ 100	2.51 to 5	> 7.5	0.101 to 0.15	1.01 to 1.3	1.01 to 1.3	0.801 to 1	< 100
Cn1cnnc1CC1(c2cccc(N3Cc4c(cc(C5CCC5)cc4C(F)(F)F)C3=O)c2)COC1 [Example 611, 6-cyclobutyl-2-(3-(3-((4-methyl-4H-1,2,4-triazol-3-yl)methyl)oxetan-3-yl)phenyl)-4-(trifluoromethyl)isoindolin-1-one]	≤ 100	2.51 to 5	2.51 to 5	0.101 to 0.15	1.01 to 1.3	1.31 to 1.5	0.801 to 1	< 100
Cn1cnnc1CC1(c2cccc(N3Cc4c(cc(C5=CCOC5)cc4C(F)(F)F)C3=O)c2)COC1 [Example 612, 6-(2,5-dihydrofuran-3-yl)-2-(3-(3-((4-methyl-4H-1,2,4-triazol-3-yl)methyl)oxetan-3-yl)phenyl)-4-(trifluoromethyl)isoindolin-1-one]	≤ 100	2.51 to 5	2.51 to 5	0.101 to 0.15	1.01 to 1.3	1.31 to 1.5	0.801 to 1	< 100
Cn1cnnc1CC1(c2cccc(N3Cc4c(cc(C5CCOC5)cc4C(F)(F)F)C3=O)c2)COC1 (stereo not drawn) [Example 613, 2-(3-(3-((4-methyl-4H-1,2,4-triazol-3-yl)methyl)oxetan-3-yl)phenyl)-6-(THF-3-yl)-4-(trifluoromethyl)isoindolin-1-one]	≤ 100	2.51 to 5	5 to 7.5	0.101 to 0.15	1.01 to 1.3	1.01 to 1.3	0.801 to 1	< 100
Cn1cnnc1CC1(c2cccc(N3Cc4c(cc(C5=CCCOC5)cc4C(F)(F)F)C3=O)c2)COC1 [Example 614]	≤ 100	2.51 to 5	2.51 to 5	0.101 to 0.15	1.01 to 1.3	1.01 to 1.3	0.801 to 1	< 100
Cn1cnnc1[C@@H](F)C1(c2cccc(N3Cc4c(cc(CN5CCC6(CC6)C5)cc4C(F)(F)F)C3=O)c2)COC1 [Example 618, (S)-6-((5-azaspiro[2.4]heptan-5-yl)methyl)-2-(3-(3-(fluoro(4-methyl-4H-1,2,4-triazol-3-yl)methyl)oxetan-3-yl)phenyl)-4-(trifluoromethyl)isoindolin-1-one]	≤ 100	5 to 7.5	> 7.5	0.101 to 0.15	1.01 to 1.3	1.31 to 1.5	> 1	< 100
Cn1cnnc1CC1(c2cccc(N3Cc4c(cc(CN5CC6CC5CO6)cc4C(F)(F)F)C3=O)c2)COC1 (stereo not drawn) [Example 619, 6-((2-oxa-5-azabicyclo[2.2.1]heptan-5-yl)methyl)-2-(3-(3-((4-methyl-4H-1,2,4-triazol-3-yl)methyl)oxetan-3-yl)phenyl)-4-(trifluoromethyl)isoindolin-1-one]	≤ 100	2.51 to 5	5 to 7.5	0.051 to 0.1	1.01 to 1.3	1.01 to 1.3	0.801 to 1	< 100
Cn1cnnc1CC1(c2cccc(N3Cc4c(cc(CN5CCC[C@@H](F)C5)cc4C(F)(F)F)C3=O)c2)COC1 [Example 623, (R)-6-((3-fluoropiperidin-1-yl)methyl)-2-(3-(3-((4-methyl-4H-1,2,4-triazol-3-yl)methyl)oxetan-3-yl)phenyl)-4-(trifluoromethyl)isoindolin-1-one]	≤ 100	> 7.5	> 7.5	> 0.201	1.31 to 1.5	1.31 to 1.5	> 1	< 100
